Results reported in patent publication US7169778B2, “Pteridinones as kinase inhibitors” (Warner-Lambert Company, priority 1999, dated 2007).

Legend:
[1] = molecular target: N-terminal truncated Wee 1 (Homo sapiens, UniProt P30291); test: Wee 1 OY kinase assay; type: biochemical; settings: read-out: WEE1OY IC50
Description: These kinase assays are carried out on 96-well filter plates (Millpore, Cat. MADPN0B50) in 50 μL kinase assay buffer (50 mM Tris, pH 8.0, 10 mM NaCl, 10 mM MgCl2, 10 μM ATP with 0.25 μCi [r-32P]ATP, 1 mM DTT) with 0.1 μg purified N-terminal truncated Wee 1 and 6 μg poly(Orn, Tyr)4:1 (Sigma, P4534). The assay is started by adding ATP and incubating at room temperature for 20 minutes with shaking. The reactions are terminated by adding 50 μL ice-cold 20% TCA (trichloracetic acid) with 0.1 M sodium pyrophosphate and shaking the resultant mixture for 1 minute. The plate is then incubated at 4° C. for 1 hour to allow protein to precipitate. These plates are then washed 5 times with 200 μL ice-cold 10% TCA and with 0.1 M sodium pyrophosphate per wash. Twenty-five microliters scintillation liquid is then added to each well, and the plate is counted in Wallac's MicroBeta counter 1450.

[2] = molecular target: C-src kinase (Homo sapiens, UniProt P12931); test: C-src kinase assay; type: biochemical
Description: C-src kinase was purified from baculovirus infected insect cell lysates using an antipeptide monoclonal antibody directed against the N-terminal amino acids (amino acids 2–17) of c-src. The antibody, covalently linked to 0.65 μm latex beads, was added to a suspension of insect cell lysis buffer comprised of 150 mM NaCl, 50 mM Tris pH 7.5, 1 mM DTT, 1% NP-40, 2 mM EGTA, 1 mM sodium vanadate, 1 mM PMSF, 1 μg/mL each of leupeptin, pepstatin, and aprotinin. Insect cell lysate containing c-src protein was incubated with these beads for 3 to 4 hours at 4° C. with rotation. At the end of the lysate incubation, the beads were rinsed three times in lysis buffer, resuspended in lysis buffer containing 10% glycerol, and frozen. These latex beads were thawed, rinsed three times in assay buffer (40 mM Tris, pH 7.5, 5 mM mgCl2) and suspended in the same buffer. In a Millipore 96-well plate with a 0.65 μm polyvinylidine membrane bottom were added the reaction components: 10 μL C-src beads, 10 μL of 2.5 mg/mL poly GluTyr substrate, 5 μM ATP containing 0.2 μCi labeled ^32P-ATP, 5 μL DMSO containing inhibitors or as a solvent control, and buffer to make the final volume 125 μL. The reaction was started at room temperature by addition of the ATP and quenched 10 minutes later by the addition of 125 μL of 30% TCA, 0.1 M sodium pyrophosphate for 5 minutes on ice. The plate was then filtered and the wells washed with two […] aliquots of 15% TCA, 0.1 M pyrophosphate. The filters were then punched, counted in a liquid scintillation counter, and the data examined for inhibitory activity in comparison to a known inhibitor such as erbstatin. The method is also described in J. Med. Chem., 1994;37:598–609.

[3] = molecular target: T1, human FGF-1 (flg) receptor tyrosine kinase (Homo sapiens, UniProt P11362); test: FGF receptor tyrosine kinase assay; type: biochemical; settings: for inhibition at 5 µM: @ 5 (unit μm), read-out: FGF % @ concentration
T1 construct: amplify a fragment of DNA that codes for the intracellular tyrosine kinase domain; made in house; host or cells: SF9 insect cells (baculovirus)
From the text: (§1) Full-length cDNAs for the mouse PDGF-β and human FGF-1 (flg) receptor tyrosine kinases were obtained from J. Escobedo and prepared as described in J. Biol. Chem., 1991;262:1482–1487. PCR primers were designed to amplify a fragment of DNA that codes for the intracellular tyrosine kinase domain. The fragment was inserted into a baculovirus vector, cotransfected with AcMNPV DNA, and the recombinant virus isolated. SF9 insect cells were infected with the virus to overexpress the protein, and the cell lysate was used for the assay. Assays were performed in 96-well plates (100 μL/incubation/well), and conditions were optimized to measure the incorporation of ^32P from γ^32P-ATP into a glutamate-tyrosine co-polymer substrate. Briefly, to each well was added 82.5 μL of incubation buffer containing 25 mM Hepes (pH 7.0), 150 mM NaCl, 0.1% Triton X-100, 0.2 mM PMSF, 0.2 mM Na3VO4, 10 mM MnCl2, and 750 μg/mL of Poly (4:1) glutamate-tyrosine followed by 2.5 μL of inhibitor and 5 μL of enzyme lysate (7.5 μg/μL FGF-TK or 6.0 μg/μL PDGF-TK) to initiate the reaction. Following a 10 minute incubation at 25° C., […] of γ^32P-ATP (0.4 μCi plus 50 μM ATP) was added to each well, and samples were incubated for an additional 10 minutes at 25° C. The reaction was terminated by the addition of 100 μL of 30% TCA containing 20 mM sodium pyrophosphate and precipitation of material onto glass fiber mats (Wallac). Filters were washed three times with 15% TCA containing 100 mM sodium pyrophosphate, and the radioactivity retained on the filters counted in a Wallac 1250 Betaplate reader. Nonspecific activity was defined as radioactivity retained on the filters following incubation of samples with buffer alone (no enzyme). Specific enzymatic activity (enzyme plus buffer) was defined as total activity minus nonspecific activity. The concentration of a compound that inhibited specific activity by 50% (IC50) was determined based on the inhibition curve.

[4] = molecular target: T2, mouse PDGF-β receptor tyrosine kinase (Mus musculus, UniProt P05622); test: PDGF receptor tyrosine kinase assay; type: biochemical
T2 construct: amplify a fragment of DNA that codes for the intracellular tyrosine kinase domain; made in house; host or cells: SF9 insect cells (baculovirus)
From the text: as §1

T1 sequence (P11362 478-767 limits assumed): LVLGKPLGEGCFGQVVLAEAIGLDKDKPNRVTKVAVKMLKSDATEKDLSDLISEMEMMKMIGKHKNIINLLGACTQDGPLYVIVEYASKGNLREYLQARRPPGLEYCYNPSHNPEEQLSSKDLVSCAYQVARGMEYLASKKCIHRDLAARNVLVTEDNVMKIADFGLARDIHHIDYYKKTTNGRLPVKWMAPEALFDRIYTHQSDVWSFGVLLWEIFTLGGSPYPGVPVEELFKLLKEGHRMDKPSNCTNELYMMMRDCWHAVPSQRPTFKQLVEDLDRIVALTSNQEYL
C-src kinase, sequence (P12931 whole entry, the tested form may be a part): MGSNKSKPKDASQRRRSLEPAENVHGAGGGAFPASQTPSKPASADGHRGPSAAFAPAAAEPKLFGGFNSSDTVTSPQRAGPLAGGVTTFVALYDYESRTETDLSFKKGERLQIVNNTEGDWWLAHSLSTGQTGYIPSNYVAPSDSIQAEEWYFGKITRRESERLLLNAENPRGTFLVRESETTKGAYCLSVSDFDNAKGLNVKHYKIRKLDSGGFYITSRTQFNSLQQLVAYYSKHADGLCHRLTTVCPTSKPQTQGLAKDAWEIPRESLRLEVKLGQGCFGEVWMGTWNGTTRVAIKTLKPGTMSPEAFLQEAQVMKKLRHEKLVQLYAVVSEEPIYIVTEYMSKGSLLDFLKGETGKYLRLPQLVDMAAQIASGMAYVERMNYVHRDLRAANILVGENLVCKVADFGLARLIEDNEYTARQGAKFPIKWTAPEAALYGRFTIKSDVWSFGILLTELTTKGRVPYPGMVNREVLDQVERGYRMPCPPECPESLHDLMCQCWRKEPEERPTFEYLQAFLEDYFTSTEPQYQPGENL
N-terminal truncated Wee 1, sequence (P30291 299-569 limits assumed): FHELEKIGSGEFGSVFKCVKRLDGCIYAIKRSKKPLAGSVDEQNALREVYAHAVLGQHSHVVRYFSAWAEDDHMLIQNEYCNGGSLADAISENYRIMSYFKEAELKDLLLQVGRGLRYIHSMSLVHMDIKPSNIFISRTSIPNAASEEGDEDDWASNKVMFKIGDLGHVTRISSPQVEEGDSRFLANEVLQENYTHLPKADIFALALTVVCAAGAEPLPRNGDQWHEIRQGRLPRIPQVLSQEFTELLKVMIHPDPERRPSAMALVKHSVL
T2 sequence (P05622 599-961 limits assumed): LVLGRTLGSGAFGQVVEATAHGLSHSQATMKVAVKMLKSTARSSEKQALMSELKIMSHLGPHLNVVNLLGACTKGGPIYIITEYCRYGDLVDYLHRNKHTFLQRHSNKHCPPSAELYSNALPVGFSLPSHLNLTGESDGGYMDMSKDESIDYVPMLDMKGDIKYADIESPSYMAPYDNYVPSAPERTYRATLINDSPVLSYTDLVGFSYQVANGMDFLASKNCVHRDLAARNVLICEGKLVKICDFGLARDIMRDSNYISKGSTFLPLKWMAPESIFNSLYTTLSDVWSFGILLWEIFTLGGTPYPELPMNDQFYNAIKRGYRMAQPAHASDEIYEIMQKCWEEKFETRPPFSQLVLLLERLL

Structure (SMILES) | IC50 [1] | melting point | IC50 [2] | IC50 [3] | inhibition at 5 µM [3] | IC50 [4]
CCN(CC)CCOc1ccc(Nc2ncc3nc(-c4c(Cl)cncc4Cl)c(=O)n(C)c3n2)cc1 [Compound 20, 6-(3,5-Dichloropyridin-4-yl)-8-methyl-2-[[4-[2-(diethylamino)ethoxy]-phenyl]amino]-8H-pteridin-7-one] | 7.07 µM | 179 to 180.5 °C | 0.12 µM | – | – | –
CCN(CC)CCOc1ccc(Nc2ncc3nc(-c4cc(OC)cc(OC)c4)c(=O)n(CC)c3n2)cc1 [Compound 14, 6-(3,5-Dimethoxyphenyl)-8-ethyl-2-[[4-[2-(diethylamino)ethoxyl]-phenyl]amino]-8H-pteridin-7-one] | – | 154 to 155 °C | – | 30 µM | – | –
COc1nc(OC)c(Cl)c(-c2nc3cnc(Nc4ccc(N5CCOCC5)cc4)nc3n(C)c2=O)c1Cl [Compound 18, 6-(3,5-Dichloro-2,6-dimethoxypyridin-4-yl)-8-methyl-2-[[4-(morpholin-4-yl)phenyl]amino]-8H-pteridin-7-one] | > 50 µM | 275 to 276 °C | 20 µM | 0.23 µM | – | –
CCN(CC)CCOc1ccc(Nc2ncc3nc(-c4ccccc4)c(=O)n(C)c3n2)cc1 [Compound 3, 2-[[4-[2-(Diethylamino)ethoxy]phenyl]amino]-8-methyl-6-phenyl-8H-pteridin-7-one] | > 50 µM | 162 to 165 °C | 1.53 µM | – | 54% | 7.55 µM
O=c1[nH]c2cnc(Nc3ccc(N4CCOCC4)cc3)nc2n(C2CCCC2)c1=O [Compound 23, 8-Cyclopentyl-2-[[4-(morpholin-4-yl]phenyl]amino]-5H,8H-pteridine-6,7-dione] | – | 283 to 286 °C | – | – | – | –
CCn1c(=O)c(-c2cc(OC)cc(OC)c2)nc2cnc(Nc3ccncc3)nc21 [Compound 15, 6-(3,5-Dimethoxyphenyl)-8-ethyl-2-[(pyridin-4-yl)amino]-8H-pteridin-7-one] | – | 245 to 246.5 °C | – | – | – | –
Cn1c(=O)c(-c2ccccc2)nc2cnc(Nc3ccc(N4CCOCC4)cc3)nc21 [Compound 1] | > 50 µM | 302 to 304.5 °C | > 50 µM | > 50 µM | – | > 50 µM
CCN(CC)CCOc1ccc(Nc2ncc3nc(-c4c(Cl)c(OC)nc(OC)c4Cl)c(=O)n(C)c3n2)cc1 [Compound 21, 6-(3,5-Dichloro-2,6-dimethoxypyridin-4-yl)-8-methyl-2-[[4-[2-(diethylamino)ethoxy]phenyl]amino]-8H-pteridin-7-one] | > 50 µM | – | 6.8 µM | 0.054 µM | – | –
CCN(CC)C(=O)c1ccc(Nc2ncc3nc(-c4c(Cl)cccc4Cl)c(=O)n(C)c3n2)cc1 [Compound 6, 6-(2,6-Dichlorophenyl)-2-[[4-(diethylaminocarbonyl)phenyl]amino]-8-methyl-8H-pteridin-7-one] | 0.987 µM | 239 to 241 °C | 0.29 µM | 0.05 µM | – | 3.13 µM
CCN(CC)C(=O)c1ccc(Nc2ncc3nc(-c4ccccc4)c(=O)n(C)c3n2)cc1 [Compound 5, 2-[[4-(Diethylaminocarbonyl)phenyl]amino]-8-methyl-6-phenyl-8H-pteridin-7-one] | > 50 µM | 250 to 252 °C | > 50 µM | – | 38% | > 50 µM
Cn1c(=O)c(-c2c(Br)cncc2Br)nc2cnc(Nc3ccc(N4CCOCC4)cc3)nc21 [Compound 19, 6-(3,5-Dibromopyridin-4-yl)-8-methyl-2-[[4-(morpholin-4-yl)phenyl]amino]-8H-pteridin-7-one] | 7.4 µM | 204 to 206 °C | 1.45 µM | – | – | –
CCN(CC)C(=O)c1ccc(Nc2ncc3nc(-c4c(Cl)cncc4Cl)c(=O)n(C)c3n2)cc1 [Compound 13, 6-(3,5-Dichloropyridin-4yl)-2-[[4-(diethylaminocarbonyl)phenyl]-amino]-8-methyl-8H-pteridin-7-one] | 4.49 µM | 230 to 231 °C | 0.5 µM | – | 17% | –
CCN(CC)C(=O)c1ccc(Nc2ncc3nc(-c4c(Cl)c(OC)nc(OC)c4Cl)c(=O)n(C)c3n2)cc1 [Compound 22, 6-(3,5Dichloro-2,6-dimethoxypyridin-4-yl)-2-[[4-(diethylaminocarbonyl)phenyl]amino]-8-methyl-8H-pteridin-7-one] | > 50 µM | 274 to 276 °C | 47 µM | 0.16 µM | – | –
Cn1c(=O)c(-c2c(Cl)cncc2Cl)nc2cnc(Nc3ccc(N4CCOCC4)cc3)nc21 [Compound 12, 6-(3,5-Dichloropyridin-4-yl)-8-methyl-2-[[4-(morpholin-4-yl)phenyl]amino]-8H-pteridin-7-one] | 1.01 µM | 243 to 245 °C | 0.38 µM | – | – | 25.4 µM
CN1CCN(c2ccc(Nc3ncc4[nH]c(=O)c(=O)n(C5CCCC5)c4n3)cc2)CC1 [Compound 24, 8-Cyclopentyl-2-[[4-(4-methylpiperazin-1-yl)phenyl]amino]-5H,8H-pteridine-6,7-dione] | – | 266 to 270 °C | 4.35 µM | – | – | –
Cn1c(=O)c(-c2c(Cl)cccc2Cl)nc2cnc(Nc3ccc(N4CCOCC4)cc3)nc21 [Compound 2, 6-(2,6-Dichlorophenyl)-8-methyl-2-[[4-(morpholin-4-yl)phenyl]amino]-8H-pteridin-7-one] | 0.144 µM | 292 to 293 °C | 0.057 µM | > 50 µM | – | 7.7 µM
CCN(CC)CCOc1ccc(Nc2ncc3nc(-c4c(Cl)cccc4Cl)c(=O)n(C)c3n2)cc1 [Compound 4, 6-(2,6Dichlorophenyl)-2-[[4-[2-(diethylamino)ethoxy]phenyl]amino]-8-methyl-8H-pteridin-7-one] | 0.861 µM | 156 to 161 °C | 0.015 µM | – | 69% | 0.7 µM
